According to publication PMC3147164 (mBio, 2011):

Tests used:
[1] = target: HK_1190 (Myxococcus xanthus, UniProt Q1DD24); conditions: excess ATP; kinase buffer pH 8.0, 10 mM MgCl2; labelled compound
[2] = target: HK_4262 (Myxococcus xanthus, UniProt Q1D4I6); conditions: excess ATP; kinase buffer pH 8.0, 10 mM MgCl2; labelled compound
Sequence of HK_4262 (Q1D4I6 477-702): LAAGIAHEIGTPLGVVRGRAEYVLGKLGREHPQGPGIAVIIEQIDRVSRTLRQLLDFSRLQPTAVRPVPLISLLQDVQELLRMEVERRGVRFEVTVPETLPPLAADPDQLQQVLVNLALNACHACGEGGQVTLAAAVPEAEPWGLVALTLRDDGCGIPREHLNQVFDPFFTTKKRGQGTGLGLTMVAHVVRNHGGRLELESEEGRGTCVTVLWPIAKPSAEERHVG

Sequence of HK_1190 (Q1DD24 205-424): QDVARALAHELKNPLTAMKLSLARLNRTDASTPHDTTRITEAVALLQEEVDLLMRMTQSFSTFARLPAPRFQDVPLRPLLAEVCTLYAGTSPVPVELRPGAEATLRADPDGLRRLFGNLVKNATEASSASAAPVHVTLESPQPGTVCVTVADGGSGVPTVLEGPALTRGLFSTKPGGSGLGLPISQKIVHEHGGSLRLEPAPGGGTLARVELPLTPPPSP

Nc1ncnc2c1ncn2[C@@H]1O[C@H](COP(=O)(O)OP(=O)(O)OP(=O)(O)O)[C@@H](O)[C@H]1O [ATP]
autophosphorylation, radiolabel gel assay [1]: Both kinases were capable of autophosphorylation
autophosphorylation, radiolabel gel assay [2]: Both kinases were capable of autophosphorylation
